Experimental data reported in patent publication US20050239873A1 (priority 1999, published 2005).
Like-named read-outs stand apart in the source and are kept apart here.

Assays:
NOD/SCID mice = assay: In vivo toxicity, intravenous dosing
plasma proteins [1] = assay: Binding to plasma proteins (ultrafiltration); format: in vitro ADME, mouse; settings: presence of NaF+EDTA, 1000 ng/ml
Experimental: (§1) Solutions of 2-OMe antimycin A3 were diluted with plasma (dog or human) containing NaF+EDTA to final concentrations of 1.0 or 0.2 μg/ml. Controls were diluted with water to the same final concentrations. These preparations were incubated at 37° C. for 20 min, at which time portions were taken and placed in the sample reservoirs of Amicon Centrifree® ultrafiltration systems (Millipore Co., Bedford, Mass.). At 37° C., the filter systems were centrifuged until the reservoirs were dry. From each filtrate, portions were taken for analysis by HPLC. The amounts present were designated as “free drug” (F). The concentrations of the unfiltered solutions were also determined by triplicate analyses. This amount represented the “total drug” concentration (T). The percentage of 2-OMe antimycin A3 bound to plasma proteins was calculated by the following formula: % bound=((T−F)/T)×100

plasma proteins [2] = assay: Binding to plasma proteins (ultrafiltration); format: in vitro ADME, dog; settings: presence of NaF+EDTA, 1000 ng/ml
Experimental: as §1
Similar experiments were performed for 2-OMe antimycin A3 in dog or rat plasma in the absence of NaF/EDTA.

[3] = Pharmacokinetic evaluation in Fischer 344 rats; format: in vivo, rat; settings: intravenous 0.25 mg/kg; for amount detectable in plasma: 2 hr after dosing; for amounts in the urine, livers, or kidneys: 24 hr after dosing
Experimental: Male Fischer 344 rats (five/group) were dosed via a lateral tail vein with either 2-OMe-A1 or 2-OMe-A3 (0.25 mg/kg) administered as a 1-min intravenous push. The dosing vehicle was the same as that used for mice. The dosing volume was 1.3 ml/kg. Blood samples were collected and analyzed. Further, samples of plasma, urine, livers, and kidneys were collected from rats kept in metabolism cages for 24 hr. To retard the breakdown of the test compounds, NaF+EDTA was present in the tubes used for collecting blood and urine and was added to tissue homogenates.
Pharmacokinetic values were derived with WinNonlin® software (Mountain View, Calif.).

[4] = test system: TAMH hepatocyte cell line; assay: O2 consumption with a Clark electrode; format: cell-based, murine
Experimental: (§2) Respiratory rates of both cell lines were maintained through repeated additions of 10 μM 2-OMeA, to a final concentration of 90 μM. […] Real-time glucose consumption and lactate production by TAMH cells grown on microcarrier beads was monitored using a novel microsequential injection-lab on valve (μSI-LOV) system (Schulz et al., Analyst 127:1293-1298, 2002). […] Since 2-OMeA has no effect on cellular respiration at these concentrations, 2-OMeA induced aerobic glycolysis in TAMH cells. The glycolytic response to 2-OMeA was proportional to cellular BCl-xL protein expression.

Bcl-xLΔC20 = Bcl-xLΔC20 (Homo sapiens, UniProt Q07817); assay: Calcein leakage from large unilamellar vesicles (pore formation); format: biochemical
Sequence of Bcl-xLΔC20 (Q07817 1-213 limits assumed, stated change not applied): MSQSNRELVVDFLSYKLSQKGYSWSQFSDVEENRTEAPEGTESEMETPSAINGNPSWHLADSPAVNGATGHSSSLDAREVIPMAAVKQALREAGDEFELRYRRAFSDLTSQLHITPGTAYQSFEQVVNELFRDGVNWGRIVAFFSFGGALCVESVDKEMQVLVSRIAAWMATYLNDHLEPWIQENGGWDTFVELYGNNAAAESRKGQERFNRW
Experimental: In this example the ability of antimycin A to prevent pore formation by BCl-xL was tested. […] Recombinant human BCl-xL lacking the C-terminal 20-residue membrane anchor sequence, Bcl-xLΔC20, forms pores in large unilamellar vesicles. A reporter, calcein, can leak out of the vesicles through these pores.
Briefly, a dry film of lipid was resuspended in an aqueous solution containing 40 mM calcein (Molecular Probes, Eugene, Oreg.), 25 mM KCl and 10 mM HEPES (pH 7.0). After 5 freeze-thaw cycles, the lipidic solution was extruded through 2 Nucleopore filters, 0.1 μm pore diameter. […] The size of the vesicle suspension was measured by a Coulter N4 Plus-Sizer to confirm that the mean diameter of the vesicle sample was close to the expected size (100 nm). The osmolalities of all solutions were measured in a cryoscopic osmometer (Wescor Inc., Logan, Utah) and adjusted to 0.21 Osmol/kg by the addition of sodium chloride, as necessary.
Calcein leakage was determined by adding 2-4 μg of purified Bcl-xLΔC20 (5 μg/ml, 161 nM) to a solution of 100 mM NaCl, 10 mM HEPES (pH 5.0) containing the large unilamellar vesicles (50 μM final lipid concentration) described above. Changes in the fluorescence intensity were measured in an Aminco-SLM spectrofluorimeter. […] The 100% fluorescence level for leakage was obtained by detergent lysis (0.1% Triton X-100) of the vesicles containing entrapped calcein.

[5] = test system: RPMI-8226 myeloma cell line; assay: O2 consumption with a Clark electrode; format: cell-based, human
Experimental: as §2

RPMI-8226 = assay: Propidium iodide exclusion / flow cytometry cytotoxicity; format: cell-based, human; settings: for mode of induced cell death: annexin V, sub-G1 DNA content, mitochondrial membrane potential
Experimental: Cell survival was assayed by exclusion of propidium iodide (PI; 10 μg/ml) by unfixed cells. Annexin V-FITC (Pharmingen) or 3, 3′-dihexyloxacarbocyanine iodide (DiOC6(3); Molecular Probes) staining was analyzed together with PI to discriminate early apoptotic cells. Apoptotic cells were also measured as sub-G1 events among ethanol-fixed cells stained with 10 μg/ml PI. All cell samples were analyzed using a benchtop FACSCalibur™ (Becton Dickinson, San Jose, Calif.). Flow data were analyzed using MultiCycle AV software (Phoenix Flow Systems). For intracellular pH measurements, cell pellets were washed once and resuspended in 2 ml of HEPES-buffered medium (no phenol red and no serum). Carboxy-SNARF-1-AM (Molecular Probes, 1 mM stock in DMSO, stored at −20° C.) was added to a final concentration of 10 μM, and the cells were incubated for 30 min at 37° C. Following incubation with SNARF, cells were sedimented and the pellets were held on ice. Immediately before analysis, pellets were resuspended in […] (HBSS; experimental buffer) or high-[K+] buffer containing nigericin (calibration samples).

[6] = test system: mitochondria from TABX2S cells (high levels of Bcl-xL); assay: JC-1 membrane potential of isolated mitochondria; parameters: species or system murine
Experimental: Isolated mitochondria were loaded with JC-1 prior to treatment, and mitochondrial labeling was determined using FACS. […] Antimycin A-treated mitochondria with high levels of Bcl-xL had lower levels of JC-1 staining than parallel samples treated with CCCP. Uncoupled mitochondria still retain a significant Donnan potential because of trapped anionic species and it is likely that antimycin-induced PT and/or swelling of mitochondria led to a further reduction of this residual potential.
As observed for the parent compound, antimycin A3, mitochondria with normal levels of BCl-xL expression were not affected by the 2-methoxy analog.

[7] = repeated additions of 10 μM to a final concentration of 90 μM

Q: Which “histologic examinations of normal tissues” value (NOD/SCID mice; 10 mg/kg) does the source give for `CCCCCC[C@H]1C(=O)O[C@H](C)[C@H](NC(=O)c2cccc(NC=O)c2OC)C(=O)O[C@@H](C)[C@@H]1OC(=O)CC(C)C` [2-OMeA1, 2-methoxy antimycin A1] here?
A: Its value is “No cellular injury or inflammation”.

Q: What about the “reformation of antimycin A1 in plasma” value (NOD/SCID mice; preliminary LC/MS analyses of plasma after administration) of the same compound?
A: Its value is “have not demonstrated reformation”.

Q: What about the “mice survived without apparent toxicity” value (NOD/SCID mice; three intravenous doses of 10 mg/kg on alternate days) of the same compound?
A: Its value is 6 of 6.

Q: And the adverse effects (NOD/SCID mice; treated tumor-bearing mice, 10 mg/kg)?
A: Its adverse effects is “No adverse effects”.

Q: What about the “Protein binding, Mouse” value (plasma proteins [1]) of the same compound?
A: The value was 99.0%.

Q: And the “Protein binding, Dog” value (plasma proteins [2])?
A: The value was 99.8%.

Q: What about the “amount detectable in plasma” value [3] of the same compound?
A: The value was “little or no”.

Q: What about the “amounts in the urine, livers, or kidneys” value [3] of the same compound?
A: The value was “little or no detectable amounts”.

Q: And the AUC [3]?
A: The AUC was 47 ng·h/mL.

Q: What about the Cmax [3] of the same compound?
A: The Cmax was 970 ng/mL.

Q: And the MRT [3]?
A: Its MRT is 3.3 min.

Q: What about the T1/2 [3] of the same compound?
A: Its T1/2 is 2.3 min.

Q: What about the Vss [3] of the same compound?
A: Its Vss is 0.29 mL/g.

Q: With antimycin A as the compound, how does the dampening of respiration ([4]; 10 μM) read?
A: Its dampening of respiration is greater than 90%.

Q: And the “Bcl-xL pore-forming activity (calcein leakage)” value (Bcl-xLΔC20; 12 μM)?
A: The value was “completely blocked”.

Q: What about the dampening of respiration ([5]; 10 μM) of the same compound?
A: Its dampening of respiration is greater than 90%.

Q: And the “time of treatment at which cell death was demonstrated” value (RPMI-8226)?
A: Its value is no more than 8 h.

Q: What about the “sensitivity (PI exclusion)” value (RPMI-8226; 5 to about 20 μg/ml) of the same compound?
A: Its value is “sensitive”.

Q: What about the “mode of induced cell death” value (RPMI-8226) of the same compound?
A: The value was “apoptosis”.

Q: What about the “decrease in ΔΨm (JC-1)” value ([6]; vs control mitochondria (TABX1A)) of the same compound?
A: The value was “much greater decrease in ΔΨm”.

Q: For 2-methoxy antimycin A [2-OMeA], which respiratory rate [4, 7] is on record?
A: The respiratory rate was “maintained”.

Q: What about the mice died (NOD/SCID mice; intravenous 20 mg/kg) of the same compound?
A: The mice died was “Three of six”.

Q: And the respiratory rate [5, 7]?
A: Its respiratory rate is “maintained”.

Q: What about the “cell killing measured as PI uptake, compared with antimycin A” value (RPMI-8226; 5 and 20 μg/ml, three cell lines) of the same compound?
A: The value was “similar”.

Q: What about the “mode of induced cell death” value (RPMI-8226) of the same compound?
A: The value was “apoptosis”.

Q: For `CCCC[C@H]1C(=O)OC(C)[C@H](NC(=O)c2cccc(NC=O)c2OC)C(=O)O[C@@H](C)C1OC(=O)CC(C)C` (stereo partly drawn) [2-OMeA3, Antimycin A3 methyl ether], which “inhibition of Bcl-xL pore formation, liposome permeability assay” value (Bcl-xLΔC20) is on record?
A: The value was “almost as well as antimycin A3”.

Q: What about the “mitochondrial depolarization (JC-1)” value ([6]; 2 μg/ml) of the same compound?
A: Its value is “strongly depolarized”.

Q: And the “Protein binding, Mouse” value (plasma proteins [1])?
A: The value was 99.1%.

Q: What about the “Protein binding, Dog” value (plasma proteins [2]) of the same compound?
A: The value was 99.3%.

Q: And the “amount detectable in plasma” value [3]?
A: Its value is “little or no”.

Q: And the “amounts in the urine, livers, or kidneys” value [3]?
A: Its value is “little or no detectable amounts”.

Q: And the half-life ([3]; male, Fischer 344, rat, plasma)?
A: Its half-life is 1 min.

Q: What about the AUC ([3]; male, Fischer 344, rat, plasma, read-out: AUC) of the same compound?
A: The AUC was 18 ng·h/mL.

Q: What about the Cmax ([3]; male, Fischer 344, rat, plasma, read-out: Cmax) of the same compound?
A: Its Cmax is 920 ng/mL.

Q: What about the MRT ([3]; male, Fischer 344, rat, plasma, read-out: MRT (converted)) of the same compound?
A: The MRT was 1.4 min.

Q: What about the Vd ([3]; male, Fischer 344, rat, plasma, read-out: Vss) of the same compound?
A: The Vd was 0.37 L/kg.
